# Measured values: patent US20210292807A1, “METHOD FOR TESTING ANTIMICROBIAL SUSCEPTIBILITY” (priority 2017, published 2021)
# “And” between values parts separate entries of the source, which are not always exact repeats. Equal entries are not always repeated.
# System: Klebsiella isolates
# Test: Broth microdilution MIC (MICBMD) of Klebsiella isolates
# Format: cell-based, Klebsiella pneumoniae, Klebsiella oxytoca
# Description: An aliquot of bacterial suspension was added to 50 mL centrifuge tubes (Corning, N.Y.) containing 9 mL of pre-warmed (37° C.) filtered MHB to produce a final density of 5×10^5-1×10^6 bacteria per mL. This suspension was incubated at 37° C. with shaking at 100 RPM for 30 minutes to obtain an actively dividing culture. An aliquot of antibiotic working solution from the previously described dilution series (appropriate to the concentration tested) was then added to each tube before a further 30-minute incubation with shaking, during which time a microbroth dilution (MBD) plate was prepared for overnight incubation at 37° C. as previously described in Clinical and Laboratory Standards Institute (2015) Performance Standards for Antimicrobial Susceptibility Testing: Informational Supplement. CLSI document M100-S25. Clinical and Laboratory Standards Institute, 950, West Valley Road, Suite 2500, Wayne, Pa., 19087, USA.
# FIG. 2 outlines the work flow as exemplified herein. In brief, an isolate was retrieved from cryopreservation, plated onto blood agar to ensure purity, and inoculated into trypticase soy broth (TSB, described above) overnight to simulate biological fluids. A 1 mL aliquot of this overnight suspension was inoculated into Mueller-Hinton broth (MHB) [comprising about 300.0 g beef extract (dehydrated infusion from), about 17.5 g casein hydrolysate, about 1.5 g starch, reconstituted in about 1 L of water, pH 7.3±0.1 as measured and kept at 25° C.] and incubated at 37° C. to ensure bacteria were actively dividing. One aliquot was subjected to traditional microbroth dilution (MBD) susceptibility testing.
# [1] = K. pneumoniae isolate 18397, biological replicates
# [2] = K. pneumoniae isolate 43292, biological replicates
# [3] = K. pneumoniae isolate 43358, biological replicates
# [4] = K. pneumoniae isolate 44271, biological replicates
# [5] = K. pneumoniae isolate ATCC 700603, biological replicates
# [6] = K. pneumoniae isolate ATCC BAA1705, biological replicates
# [7] = K. pneumoniae isolate K1, biological replicates
# [8] = K. pneumoniae isolate K14, biological replicates
# [9] = isolate 3000770, England, NDM-1
# [10] = isolate 3040820, England, pAmpC
# [11] = isolate ATCC BAA 1705, USA, KPC
# [12] = isolate K16, Australia, IMP - 4
# [13] = isolate K23, Australia, IMP - 4
# [14] = isolate KS1, Sri Lanka, OXA-181
# [15] = isolate KS17, Sri Lanka, OXA-181
smiles,measurement,setting,value
C[C@@H](O)[C@H]1C(=O)N2C(C(=O)O)=C(S[C@@H]3CN[C@H](C(=O)N(C)C)C3)[C@H](C)[C@H]12 [meropenem],MICBMD,"K. pneumoniae ATCC 700603 (carbapenem susceptible control), limited clinical screen concentrations",≤0.25
same,MICBMD,"K. pneumoniae ATCC BAA1705 (carbapenem resistant control), limited clinical screen concentrations",>16
same,BMD S/NS,[1],S (S: MIC ≤2 mg/L)
same,MICBMD,[1],≤0.25 mg/L
same,BMD S/NS,[2],S (S: MIC ≤2 mg/L)
same,MICBMD,[2],≤0.25 mg/L
same,BMD S/NS,[3],S (S: MIC ≤2 mg/L)
same,MICBMD,[3],≤0.25 mg/L
same,BMD S/NS,[4],S (S: MIC ≤2 mg/L)
same,MICBMD,[4],0.5 mg/L
same,BMD S/NS,[5],S (S: MIC ≤2 mg/L)
same,MICBMD,[5],≤0.25 mg/L
same,BMD S/NS,[6],NS (NS: MIC >2 mg/L)
same,MICBMD,[6],16 mg/L
same,BMD S/NS,[7],NS (NS: MIC >2 mg/L)
same,MICBMD,[7],32 mg/L (2×) and 64 mg/L
same,BMD S/NS,[8],NS (NS: MIC >2 mg/L)
same,MICBMD,[8],256 mg/L
same,MICBMD,"K. pneumoniae isolate KS1, biological replicates",4 mg/L and 2 mg/L (2×)
same,MICBMD,"K. pneumoniae isolate KS11, biological replicates",2 mg/L and 4 mg/L (2×)
same,MBD S/NS,"isolate 194, Sweden, VIM",NS (NS = MIC >2 mg/L)
same,MICBMD,"isolate 194, Sweden, VIM",64 mg/L
same,MBD S/NS,"isolate 374, Sweden, VIM",NS (NS = MIC >2 mg/L)
same,MICBMD,"isolate 374, Sweden, VIM",8 mg/L
same,MBD S/NS,"isolate 3354, Australia",S (S = MIC ≤2 mg/L)
same,MICBMD,"isolate 3354, Australia",≤0.25 mg/L
same,MBD S/NS,"isolate 10924, Sweden, KPC",S (S = MIC ≤2 mg/L)
same,MICBMD,"isolate 10924, Sweden, KPC",≤0.25 mg/L
same,MBD S/NS,"isolate 18397, Australia",S (S = MIC ≤2 mg/L)
same,MICBMD,"isolate 18397, Australia",≤0.25 mg/L
same,MBD S/NS,"isolate 43288, Australia",S (S = MIC ≤2 mg/L)
same,MICBMD,"isolate 43288, Australia",≤0.25 mg/L
same,MBD S/NS,"isolate 43292, Australia",S (S = MIC ≤2 mg/L)
same,MICBMD,"isolate 43292, Australia",≤0.25 mg/L
same,MBD S/NS,"isolate 43358, Australia",S (S = MIC ≤2 mg/L)
same,MICBMD,"isolate 43358, Australia",≤0.25 mg/L
same,MBD S/NS,"isolate 43854, Australia",S (S = MIC ≤2 mg/L)
same,MICBMD,"isolate 43854, Australia",≤0.25 mg/L
same,MBD S/NS,"isolate 44271, Australia",S (S = MIC ≤2 mg/L)
same,MICBMD,"isolate 44271, Australia",0.5 mg/L
same,MBD S/NS,"isolate 51575, Sweden, ESBL",S (S = MIC ≤2 mg/L)
same,MICBMD,"isolate 51575, Sweden, ESBL",≤0.25 mg/L
same,MBD S/NS,"isolate 70708, Sweden, KPC",NS (NS = MIC >2 mg/L)
same,MICBMD,"isolate 70708, Sweden, KPC",32 mg/L
same,MBD S/NS,"isolate 71076, Sweden, KPC",NS (NS = MIC >2 mg/L)
same,MICBMD,"isolate 71076, Sweden, KPC",32 mg/L
same,MBD S/NS,"isolate 200822, Sweden, KPC",NS (NS = MIC >2 mg/L)
same,MICBMD,"isolate 200822, Sweden, KPC",16 mg/L
same,MBD S/NS,"isolate 270902, England",S (S = MIC ≤2 mg/L)
same,MICBMD,"isolate 270902, England",0.5 mg/L
same,MBD S/NS,"isolate 500638, Sweden, pAmpC",NS (NS = MIC >2 mg/L)
same,MICBMD,"isolate 500638, Sweden, pAmpC",4 mg/L
same,MBD S/NS,"isolate 515870, Sweden, ESBL",S (S = MIC ≤2 mg/L)
same,MICBMD,"isolate 515870, Sweden, ESBL",≤0.25 mg/L
same,MBD S/NS,"isolate 2440606, England",S (S = MIC ≤2 mg/L)
same,MICBMD,"isolate 2440606, England",≤0.25 mg/L
same,MBD S/NS,"isolate 2880622, England",S (S = MIC ≤2 mg/L)
same,MICBMD,"isolate 2880622, England",≤0.25 mg/L
same,MBD S/NS,"isolate 2880654, England, KPC",NS (NS = MIC >2 mg/L)
same,MICBMD,"isolate 2880654, England, KPC",64 mg/L
same,MBD S/NS,"isolate 2890369, England",S (S = MIC ≤2 mg/L)
same,MICBMD,"isolate 2890369, England",≤0.25 mg/L
same,MBD S/NS,"isolate 2980639, England",S (S = MIC ≤2 mg/L)
same,MICBMD,"isolate 2980639, England",≤0.25 mg/L
same,MBD S/NS,[9],NS (NS = MIC >2 mg/L)
same,MICBMD,[9],32 mg/L
same,MBD S/NS,[10],S (S = MIC ≤2 mg/L)
same,MICBMD,[10],0.5 mg/L
same,MBD S/NS,"isolate 3080800, England, KPC",NS (NS = MIC >2 mg/L)
same,MICBMD,"isolate 3080800, England, KPC",256 mg/L
same,MBD S/NS,"isolate A1, Norway",S (S = MIC ≤2 mg/L)
same,MICBMD,"isolate A1, Norway",≤0.25 mg/L
same,MBD S/NS,"isolate A2, Norway",S (S = MIC ≤2 mg/L)
same,MICBMD,"isolate A2, Norway",≤0.25 mg/L
same,MBD S/NS,"isolate A3, Norway",S (S = MIC ≤2 mg/L)
same,MICBMD,"isolate A3, Norway",≤0.25 mg/L
same,MBD S/NS,"isolate A4, Norway",S (S = MIC ≤2 mg/L)
same,MICBMD,"isolate A4, Norway",≤0.25 mg/L
same,MBD S/NS,"isolate A7, Norway",S (S = MIC ≤2 mg/L)
same,MICBMD,"isolate A7, Norway",≤0.25 mg/L
same,MBD S/NS,"isolate A13, Norway",S (S = MIC ≤2 mg/L)
same,MICBMD,"isolate A13, Norway",≤0.25 mg/L
same,MBD S/NS,"isolate A15, Norway",S (S = MIC ≤2 mg/L)
same,MICBMD,"isolate A15, Norway",≤0.25 mg/L
same,MBD S/NS,"isolate A16, Norway",S (S = MIC ≤2 mg/L)
same,MICBMD,"isolate A16, Norway",≤0.25 mg/L
same,MBD S/NS,"isolate A20, Norway, NDM-1",NS (NS = MIC >2 mg/L)
same,MICBMD,"isolate A20, Norway, NDM-1",16 mg/L
same,MBD S/NS,"isolate ATCC 700603, USA",S (S = MIC ≤2 mg/L)
same,MICBMD,"isolate ATCC 700603, USA",≤0.25 mg/L
same,MBD S/NS,[11],NS (NS = MIC >2 mg/L)
same,MICBMD,[11],16 mg/L
same,MBD S/NS,"isolate ATCC BAA 1706, USA",S (S = MIC ≤2 mg/L)
same,MICBMD,"isolate ATCC BAA 1706, USA",≤0.25 mg/L
same,MBD S/NS,"isolate K1, Australia, OXA-181",NS (NS = MIC >2 mg/L)
same,MICBMD,"isolate K1, Australia, OXA-181",64 mg/L
same,MBD S/NS,"isolate K2, Australia, OXA-181",NS (NS = MIC >2 mg/L)
same,MICBMD,"isolate K2, Australia, OXA-181",32 mg/L
same,MBD S/NS,"isolate K8, Australia, NDM-1",NS (NS = MIC >2 mg/L)
same,MICBMD,"isolate K8, Australia, NDM-1",>256 mg/L
same,MBD S/NS,"isolate K14, Australia, KPC",NS (NS = MIC >2 mg/L)
same,MICBMD,"isolate K14, Australia, KPC",>256 mg/L
same,MBD S/NS,[12],NS (NS = MIC >2 mg/L)
same,MICBMD,[12],16 mg/L
same,MBD S/NS,[13],S (S = MIC ≤2 mg/L)
same,MICBMD,[13],2 mg/L
same,MBD S/NS,[14],NS (NS = MIC >2 mg/L)
same,MICBMD,[14],4 mg/L
same,MBD S/NS,"isolate KS2, Sri Lanka, OXA-181",NS (NS = MIC >2 mg/L)
same,MBD S/NS,[15],NS (NS = MIC >2 mg/L)
same,MICBMD,[15],64 mg/L
same,MBD S/NS,"isolate KS23, Sri Lanka, OXA-181",NS (NS = MIC >2 mg/L)
same,MBD S/NS,"isolate N17, Sweden, NDM-1",NS (NS = MIC >2 mg/L)
same,MICBMD,"isolate N17, Sweden, NDM-1",32 mg/L
